Where “and” joins values, the source holds several entries; their conditions need not be identical. Identical values can stand only once. Like-named read-outs stand apart in the source and are kept apart here. One block for each compound: values may come before it.
Experiments:
[1] = target: T1, dephosphorylated IRE1α (547–977) (Homo sapiens, UniProt O75460); assay: FRET-based IRE1α RNase activity assay, dephosphorylated IRE1α; assay type: biochemical; conditions: for IC50: FRET assay
T1 construct: Human IRE1α kinase and RNase domain (residues 547–977) was subcloned into pLIB plasmid; His tag (with TEV cleavage site) (N, cleaved yes); made in house; host or cells: Sf9 insect cells, baculovirus (Bac-to-Bac)
Method: (§1) Human IRE1α kinase and RNase domain (residues 547–977) was subcloned into pLIB plasmid with a His tag and TEV cleavage site, and expressed using Bac-to-Bac expression system. The primers used are listed in Supplementary Table S3. The protein purification was performed following established procedures. Briefly, Sf9 cells were infected with baculovirus and incubated at 27 °C 110 rpm for 72 h. The cells were collected by centrifugation at 4000 × g for 15 min and the cell pellet was resuspended in lysis buffer (50 mM HEPES pH 7.5, 300 mM NaCl, 10% glycerol, 1 mM MgCl2, 1 mM TCEP, 5 mM imidazole), then supplemented with 1:10,000 benzonase (Sigma, E1014), 1 tablet/25 mL […]™ Protease Inhibitor Cocktail tablets (Sigma, S8830) and 1 mM PMSF before lysed by sonication at 4 °C. […] The protein elution was incubated with TEV protease to remove His tag at 4 °C overnight. Then the sample was diluted 1:6 in buffer (50 mM HEPES pH 7.5, 1 mM TCEP, 5% glycerol) and loaded onto a 5 mL pre-packaged Q HP anion exchange column (Cytiva, HiTrap Q HP) pre-equilibrated with QA buffer (50 mM HEPES pH 7.5, 50 mM NaCl, 1 mM TCEP, 5% glycerol). The unphosphorylated and phosphorylated protein was separated by eluting the protein with a very shallow gradient with 0-30% buffer QB (50 mM HEPES pH 7.5, 1 M NaCl, 1 mM TCEP, 5% glycerol) over 80 CV. Different peaks were collected separately and verified by LC-MS. The fully phosphorylated fraction was collected and further purified by size exclusion chromatography (Cytiva, HiLoad 16/600 Superdex 200 pg,) with SEC buffer (25 mM HEPES pH 7.5, 250 mM NaCl, 1 mM TCEP, 10% glycerol) and fractioned as monomeric peak. The rest protein fraction from the Q HP anion exchange column was incubated with Lambda protein phosphatase (New England BioLabs, P0753S) overnight at 4 °C, the dephosphorylation was confirmed by LC-MS. The unphosphorylated protein was further purified by size exclusion chromatography with the SEC buffer described above. The purified phosphorylated (p-IRE1α) and dephosphorylated (IRE1α) protein aliquots were stored at −80 °C for future usage.
The dual-labeled RNA substrate with a FAM at 5’ and the BHQ-1 at 3’ containing the XBP1 sequence (5′FAM-[…]-3′BHQ1) was purchased from Integrated DNA Technologies (IDT). The FRET-based IRE1α RNase activity assay was carried out in reaction buffer containing 20 mM HEPES pH 7.5, 50 mM KOAc, 1 mM MgOAc2, 1 mM DTT, 0.05% v/v TritonX-100, at a total reaction volume of 20 μL in a 384-well black plate (4514, Corning). For unphosphorylated IRE1α (IRE1α), a final concentration of 40 nM IRE1α protein and 100 nM RNA substrate was used. For phosphorylated IRE1 (p-IRE1α), a final concentration of 4 nM p-IRE1α protein and 200 nM RNA substrate was used. The indicated compound and IRE1α protein were incubated for 30 min at room temperature before the substrate was added to the reaction. The plate was then kinetically read over one hour at room temperature using a TECAN Spark plate reader. The measurement was carried out using the fluorescence top reading mode at the excitation wavelength of 485 nm and the emission wavelength of 535 nm with a 10 nm excitation and emission bandwidth. The linear part of the reaction curve was adopted and fitted with sample linear regression to obtain the slope, and the slope was adopted to reflect the reaction rate. The inhibition % was calculated by using the equation: inhibition% = 100 × (slope of DMSO control – slope of the sample)/(slope of DMSO control – slope of blank control), DMSO control: DMSO with protein and RNA substrate; Blank control: DMSO with RNA substrate. The IC50 values were calculated using the concentration-response model in GraphPad Prism 9. […]

[2] = target: T2, phosphorylated IRE1α (p-IRE1α) (Homo sapiens, UniProt O75460); assay: FRET-based IRE1α RNase activity assay, phosphorylated IRE1α; assay type: biochemical; conditions: FRET assay
T2 construct: Human IRE1α kinase and RNase domain (residues 547–977) was subcloned into pLIB plasmid; His tag (with TEV cleavage site) (N, cleaved yes); made in house; host or cells: Sf9 insect cells, baculovirus (Bac-to-Bac)
Method: as §1
The dual-labeled RNA substrate with a FAM at 5’ and the BHQ-1 at 3’ containing the XBP1 sequence (5′FAM-[…]-3′BHQ1) was purchased from Integrated DNA Technologies (IDT). The FRET-based IRE1α RNase activity assay was carried out in reaction buffer containing 20 mM HEPES pH 7.5, 50 mM KOAc, 1 mM MgOAc2, 1 mM DTT, 0.05% v/v TritonX-100, at a total reaction volume of 20 μL in a 384-well black plate (4514, Corning). For unphosphorylated IRE1α (IRE1α), a final concentration of 40 nM IRE1α protein and 100 nM RNA substrate was used. For phosphorylated IRE1 (p-IRE1α), a final concentration of 4 nM p-IRE1α protein and 200 nM RNA substrate was used. The indicated compound and IRE1α protein were incubated for 30 min at room temperature before the substrate was added to the reaction. The plate was then kinetically read over one hour at room temperature using a TECAN Spark plate reader. The measurement was carried out using the fluorescence top reading mode at the excitation wavelength of 485 nm and the emission wavelength of 535 nm with a 10 nm excitation and emission bandwidth. The linear part of the reaction curve was adopted and fitted with sample linear regression to obtain the slope, and the slope was adopted to reflect the reaction rate. The inhibition % was calculated by using the equation: inhibition% = 100 × (slope of DMSO control – slope of the sample)/(slope of DMSO control – slope of blank control), DMSO control: DMSO with protein and RNA substrate; Blank control: DMSO with RNA substrate. The IC50 values were calculated using the concentration-response model in GraphPad Prism 9.

[3] = RNase activity, mean (± SEM), read-out: IRE1α IC50
[4] = RNase activity, mean (± SEM), read-out: p-IRE1α IC50
[5] = source data, unit from Fig. 3 / sheet Fig. 2b, read-out: IRE1a IC50, individual replicates (n1-n4)
[6] = source data, unit from Fig. 3, read-out: p-IRE1a IC50, individual replicates (n1-n4)

T1 sequence (O75460 547-977): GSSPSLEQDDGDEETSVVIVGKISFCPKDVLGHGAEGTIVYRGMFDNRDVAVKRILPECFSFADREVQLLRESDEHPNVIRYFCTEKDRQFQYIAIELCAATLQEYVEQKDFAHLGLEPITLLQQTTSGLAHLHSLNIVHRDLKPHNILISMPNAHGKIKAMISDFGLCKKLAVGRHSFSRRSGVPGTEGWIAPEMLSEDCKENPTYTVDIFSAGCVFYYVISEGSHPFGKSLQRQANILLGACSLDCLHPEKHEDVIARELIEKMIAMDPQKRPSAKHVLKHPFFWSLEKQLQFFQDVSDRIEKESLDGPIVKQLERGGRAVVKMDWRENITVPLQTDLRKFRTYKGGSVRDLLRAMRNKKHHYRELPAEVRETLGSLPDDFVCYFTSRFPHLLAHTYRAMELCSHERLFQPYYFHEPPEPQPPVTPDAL
T2 sequence (O75460 547-977): as above

Compound: Cc1noc(C)c1-c1ccc2c(c1)c(CCC(=O)O)c(C)n2C(=O)c1ccccc1 [IA142]
IC50 [1, 3]: 1.61 µM
IC50 [1, 5]: 2.69 µM and 1.1 µM and 1.04 µM
IC50 [2, 4]: 4.68 µM
IC50 [2, 6]: 4.81 µM and 5.54 µM and 3.68 µM

Compound: COc1ncc(-c2ccc3c(c2)c(CCC(=O)O)c(C)n3C(=O)c2ccccc2)c(OC)n1 [IA143]
IC50 [1, 3]: 14.1 µM
IC50 [1, 5]: 19.6 µM and 14 µM and 8.76 µM
IC50 [2, 4]: 39.4 µM
IC50 [2, 6]: 40.5 µM and 47.1 µM and 30.6 µM

Compound: Cc1c(CCC(=O)O)c2cc(-c3ccc(C(F)(F)F)cc3)ccc2n1C(=O)c1ccccc1 [IA145]
IC50 [1, 3]: 13.4 µM
IC50 [1, 5]: 14.1 µM and 14.2 µM and 11.9 µM
IC50 [2, 4]: 43.2 µM
IC50 [2, 6]: 40.7 µM and 46.9 µM and 42.1 µM

Compound: Cc1c(CCC(=O)O)c2cc(-c3cccc(N)c3)ccc2n1C(=O)c1ccccc1 [IA146]
IC50 [1, 3]: 1.21 ± 0.82 µM
IC50 [1, 5]: 2.15 µM and 0.81 µM and 0.672 µM
IC50 [2, 4]: 6.65 µM
IC50 [2, 6]: 7.28 µM and 8.07 µM and 4.59 µM

Compound: Cc1c(CCC(=O)O)c2cc(OC(F)(F)F)ccc2n1C(=O)c1ccccc1 [IA148]
reduction in IRE1α inhibition relative to IA64 ([1]; FRET IC50): ~ 19 fold
IC50 [1, 3]: 0.57 ± 0.36 µM
IC50 [1, 5]: 0.524 µM and 0.238 µM and 0.957 µM
IC50 [2, 4]: 0.94 µM
IC50 [2, 6]: 0.986 µM and 0.798 µM and 1.02 µM

Now from value to compound:

IC50 [1, 3]: 1.27 µM
IC50 [2, 4]: 2.03 µM
Compound: Cc1c(CCC(=O)O)c2cc(-c3ccoc3)ccc2n1C(=O)c1ccccc1 [IA138]

IC50 [1, 3]: 2.97 µM
IC50 [1, 5]: 2.31 µM and 3.81 µM and 2.78 µM
IC50 [2, 4]: 7.56 µM
IC50 [2, 6]: 1.97 µM and 10.1 µM and 10.6 µM
Compound: Cc1c(CCC(=O)O)c2cc(-c3cccs3)ccc2n1C(=O)c1ccccc1 [IA140]

IC50 [1, 3]: 1.01 ± 0.27 µM
IC50 [1, 5]: 0.895 µM and 0.824 µM and 1.32 µM
IC50 [2, 4]: 8.81 µM and 8.82 µM
IC50 [2, 6]: 6.8 µM and 11.6 µM and 8.05 µM
Compound: Cc1c(CCC(=O)O)c2cc(-c3cccc(C(=O)O)c3)ccc2n1C(=O)c1ccccc1 [IA149]

IC50 [1, 3]: 12.1 µM
IC50 [1, 5]: 10.8 µM and 12.5 µM and 13 µM
IC50 [2, 4]: 43.1 µM
IC50 [2, 6]: 46.9 µM and 49.8 µM and 32.5 µM
Compound: Cc1c(CCC(=O)O)c2cc(-c3ccc(C(N)=O)cc3)ccc2n1C(=O)c1ccccc1 [IA152]

— publication PMC12475274, “Harnessing indole scaffolds to identify small-molecule IRE1α inhibitors modulating XBP1 mRNA splicing” (Nature Communications, 2025)
